Results from patent EP4613329A1, “COMPOUND FOR INHIBITING BRD PROTEIN” (Benobio Co., Ltd., priority 2024, dated 2025).

Tests used:
BRD2 (BD1) = molecular target: T1, BRD2 (BD1) (Homo sapiens, UniProt P25440); experiment: Binding inhibitory effect on BRD2 protein (AlphaScreen, GST-BRD2 (BD1) / biotinylated acetyl-histone H4 peptide); conditions: 100 nM GST-BRD2 (BD1), 100 nM biotinylated acetyl-histone H4 (Lys5, 8, 12, 16) peptide
T1 construct: a bromodomain of BRD2 (BD1) and BRD3 (BD1), one of the BRD protein family
T1 sequence (P25440 74-180 limits assumed, species assumed): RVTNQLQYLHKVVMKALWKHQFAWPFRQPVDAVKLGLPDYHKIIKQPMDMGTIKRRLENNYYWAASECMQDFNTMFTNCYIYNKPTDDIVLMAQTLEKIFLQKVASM

BRD3 (BD1) = molecular target: T2, BRD3 (BD1) (Homo sapiens, UniProt Q15059); experiment: Binding inhibitory effect on BRD3 protein (same manner as Experimental Example 1-1)
T2 construct: a bromodomain of BRD2 (BD1) and BRD3 (BD1), one of the BRD protein family; GST
T2 sequence (Q15059 34-140 limits assumed, species assumed): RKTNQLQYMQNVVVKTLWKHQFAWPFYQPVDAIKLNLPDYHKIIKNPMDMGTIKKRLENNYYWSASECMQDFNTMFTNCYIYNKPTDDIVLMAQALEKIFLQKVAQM

[1] = system: retinal degeneration mouse model; experiment: Electroretinogram (ERG) in blue LED-induced retinal degeneration mouse model; format: in vivo, albino BALB/c mice; conditions: compound 24 nM, Com. Ex. 4 25 mg/kg; for Wavelength enhanced multiple compared to normal saline-treated group, Average value: average of a-wave and b-wave, intravitreal; for Wavelength enhanced multiple compared to normal saline-treated group, a-wave / Wavelength enhanced multiple compared to normal saline-treated group, b-wave: single intravitreal injection 1 hour after LED exposure
Experimental: In order to fabricate a retinal degeneration model, 7-week-old male albino BALB/c mice were used. Three mice were randomly assigned to each test group, and light and dark were maintained at 12-hour intervals. Each mouse was dark-adapted for 24 hours and then the pupils were dilated with 0.5% tropicamide and 0.5% phenylephrine hydrochloride eye drops (Santen, Osaka, Japan) 30 minutes before blue LED exposure. Unanesthetized mice were exposed to 2,000 lux of a blue LED (460 ± 10 nm) for 2 hours in a cage with reflective interiors. The light intensity was measured using an LED photometer (model TM-201L, TENMARS Electronics, Taipei, Taiwan). After exposure to blue LED, the mice were kept in the dark for 24 hours and then resumed on a 12-hour light/dark cycle for 3 days.
In a test substance control test, mice with retinal degeneration were divided into a normal saline-administered group and a compound-administered group (24 nM) of the present disclosure, and 3 mice were randomly assigned to each test group. A positive control test was divided into a normal saline-administered group and an Eyela (25 mg/kg mouse body weight)-administered group (Comparative Example 4), and three mice were randomly assigned to each test group.
All test groups were administered as a single dose by intravitreal injection 1 hour after LED exposure.
That is, mice were stored in a completely dark room for 16 hours before ERG recordings. All animals were anesthetized intraperitoneally with zolazepam (20 mg/kg) and xylazine (7.5 mg/kg). The cornea was coated with hydroxypropyl methylcellulose gel and covered with a gold ring contact electrode. Ground and reference electrodes were disposed subcutaneously on the tail and ears, respectively. Stimuli were short white flashes delivered through a Ganzfeld stimulator (UTAS-3000; LKC Technologies, Gaithersburg, MD, USA). The signal was amplified and filtered through a digital band-pass filter in the range of 5 to 300 Hz to generate a and b waves. Scotopic ERG, and rod-mediated responses were obtained at increasing light intensities of 0.025 and 3.96 cd/s • m^2. Photopic, cone-mediated responses were obtained after 5-min light adaptation to background light intensity. The recordings were obtained at the light intensity of 6.28 cd/s • m^2. Each recording was the average of three responses obtained within a 15-second stimulation interval. A-wave amplitude was measured from a baseline to the maximum a-wave peak, and b-wave amplitude was measured from the maximum a-wave peak to the maximum b-wave peak.

[2] = system: macular degeneration animal model; experiment: Laser burn-induced macular degeneration animal model, OCT and FFA image analysis; format: in vivo, mouse; conditions: compounds 0.022 µg/eye, Com. Ex. 4 20 µg/eye
Experimental: After the mouse was subjected to general anesthesia, the eye was applied with anesthetic eye drops to be subjected to additional local anesthesia and additionally induce mydriasis. A macular degeneration animal model was prepared by destroying the Bruch's membrane by inducing laser burn according to macular degeneration induction conditions. […] On day 11 of macular degeneration induction, the mice were subjected to general anesthesia and then injected intraperitoneally with a fluorescent contrast agent. The mouse was placed on the sacrifice table, lubricating gel was dropped into the corresponding eye, and an OCT lens was brought into contact with the mouse's cornea. Image analysis for fluorescein fundus angiography (FFA) and OCT was performed using the Image-J program.

| SMILES | IC50 (BRD2 (BD1)) | IC50 (BRD3 (BD1)) | Wavelength enhanced multiple compared to normal saline-treated group, Average value [1] | Wavelength enhanced multiple compared to normal saline-treated group, a-wave [1] | Wavelength enhanced multiple compared to normal saline-treated group, b-wave [1] | Lesion size compared to negative control group (FFA) ([2]; FFA imaging, day 11, negative control = excipient) | CTF value ([2]; FFA imaging, day 11 of macular degeneration induction, both eyes) | Lesion size compared to negative control group (OCT) ([2]; OCT imaging, day 11, negative control = excipient) | Volume of lesion ([2]; OCT imaging, day 11 of macular degeneration induction, both eyes) |
| --- | --- | --- | --- | --- | --- | --- | --- | --- | --- |
| CN1Cc2c(cccc2-c2ccccc2-c2ccc(CN3CCOCC3)o2)C1=O [Compound 13, 2-methyl-4-(2-(5-(morpholinomethyl)furan-2-yl)phenyl)isoindoline-1-one] | 7.65 µM | 3.65 µM | 1.33 | 1.29 | 1.36 |  |  |  |  |
| CN1Cc2c(cccc2-c2ccccc2-c2ccc(CNCc3cnn(C)c3)o2)C1=O [Compound 18, 2-methyl-4-(2-(5-((((1-methyl-1H-pyrazole-4yl)methyl)amino)methyl)furan-2-yl)phenyl)isoindoline-1-one] | 6.51 µM | 2.67 µM | 2.04 | 2.05 | 2.03 |  |  |  |  |
| CNC(=O)C1(C)CN(Cc2ccc(-c3ccccc3-c3cccc4c3CN(C)C4=O)o2)CCC1O (stereo not shown) [Compound 25] | 7.68 µM | 1.29 µM | 1.27 | 1.52 | 1.01 |  |  |  |  |
| CNC(=O)C1(Cc2ccccc2)CCCN1Cc1ccc(-c2ccccc2-c2cccc3c2CN(C)C3=O)o1 (stereo not shown) [Compound 28] | 10.9 µM | 4.36 µM | 1.33 | 1.31 | 1.35 | 35.40% | 325,936 Pixels | 51.99% | 1,132,542 µm^3 |
| CNC(=O)C1(Cc2ccc(F)cc2)CCN(Cc2oc(-c3ccccc3-c3cccc4c3CN(C)C4=O)cc2C)CC1 [Compound 39, 2-methyl-4-(2-(5-((3-methyl(4-(4-fluorobenzyl)-4'-carboxamidyl)piperidine)methyl)furan-2-yl)phenyl)isoindoline-1-one] | 8.67 µM | 4.16 µM | 1.36 | 1.21 | 1.51 |  |  |  |  |

Second part, led by results:

| IC50 (BRD2 (BD1)) | IC50 (BRD3 (BD1)) | Wavelength enhanced multiple compared to normal saline-treated group, Average value [1] | Wavelength enhanced multiple compared to normal saline-treated group, a-wave [1] | Wavelength enhanced multiple compared to normal saline-treated group, b-wave [1] | SMILES | Lesion size compared to negative control group (FFA) ([2]; FFA imaging, day 11, negative control = excipient) | CTF value ([2]; FFA imaging, day 11 of macular degeneration induction, both eyes) | Lesion size compared to negative control group (OCT) ([2]; OCT imaging, day 11, negative control = excipient) | Volume of lesion ([2]; OCT imaging, day 11 of macular degeneration induction, both eyes) |
| --- | --- | --- | --- | --- | --- | --- | --- | --- | --- |
| 13.9 µM | 1.16 µM | 2.30 | 2.17 | 2.42 | CNC(=O)C1(Cc2ccc(F)cc2)CCN(Cc2ccc(-c3ccccc3-c3cccc4c3CN(C)C4=O)o2)CC1 [Compound 21, 2-methyl-4-(2-(5-(((4-(4-fluorobenzyl)-4'-carboxamidyl)piperidine)methyl)furan-2-yl)phenyl)isoindoline-1-one] |  |  |  |  |
| 9.5 µM | 4.76 µM | 1.38 | 1.45 | 1.31 | CN1Cc2c(cccc2-c2ccccc2-c2ccc(COCN3CCC(F)(F)CC3)o2)C1=O [Compound 37, 2-methyl-4-(2-(5-((((4,4-difluoropiperidine-1-yl)methoxy)-3-carboxamidyl)methyl)furan-2-yl)phenyl)isoindoline-1-one] |  |  |  |  |
| 10.6 µM | 3.96 µM | 1.30 | 1.16 | 1.43 | CCC1(C(=O)NC)CCCN(Cc2oc(-c3ccccc3-c3cccc4c3CN(C)C4=O)cc2C)C1 (stereo not shown) [Compound 40] |  |  |  |  |
| 10.9 µM | 3.77 µM | 1.32 | 1.25 | 1.38 | CNC(=O)CC1C(=O)NCCN1Cc1oc(-c2ccccc2-c2cccc3c2CN(C)C3=O)cc1C (stereo not shown) [Compound 42, 2-methyl-4-(2-(5-(3-methyl(N-methyl-2-(3-oxopiperazine-2yl)acetamidyl)methyl)furan-2-yl)phenyl)isoindoline-1-one] |  |  |  |  |
